Earlier results in US8691514B2, “Method for selective control of helper T cell function” (Japan Science and Technology Agency, priority 2008, dated 2014).

How the values were obtained:
CD8 positive T cell = settings: treated with GlcCer synthetase inhibitor; Nagafuku et al. 2003, Blank et al. 2005
CD4 positive T cell = settings: treated with GlcCer synthetase inhibitor; Nagafuku et al. 2003, Blank et al. 2005

For `CCCCCCCCCC(=O)N[C@H](CN1CCOCC1)[C@H](O)c1ccccc1.Cl` [D-PDMP, D-threo-1-phenyl-2-decanoylamiono-3-morpholino-1-prppanol.HCl], the “function of the CD8 positive T cell” value (CD8 positive T cell) is listed as “suppressed” and the “function of the CD4 positive T cell” value (CD4 positive T cell) is listed as “suppressed”.
